In patent US8377883B2, “Peptide for anti-angiogenesis and use thereof” (Beijing Institute for Cancer Research, priority 2006, dated 2013):

Key:
osteosarcoma S180 cells = assay: Tumor suppression in osteosarcoma S180 cells tumor-bearing mouse model (Example 4); assay type: in vivo, mice of Kunming strain; conditions: 50 m/1000 PBS/injection, angulus oculi medialis vein daily, 7 times; vs PBS control, P<0.05
Experimental: To confirm the biological effects of FpAT on the growth of mice deriving tumor in mice in vivo, a tumor suppression experiment was carried out in this example using liver cancer H22 cells tumor-bearing mouse model of mice of Kunming strain and osteosarcoma S180 cells tumor-bearing mouse model of mice of Kunming strain. Forty 5-week old mice of Kunming strain purchased from Animal Center Of Chinese Academy Of Medical Sciences were inoculated subcutaneously in forelimb with mouse liver cancer H22 cells (National Institute for the Control of Pharmaceutical and Biological Products) (5×10^6/100 μl/mouse) or osteosarcoma S180 cells (National Institute for the Control of Pharmaceutical and Biological Products) (5×10^6/100 μl/mouse). On the next day after inoculation, each kind of inoculated cells were divided into 2 groups randomly with 10 mice per group. FpAT ([…]) or vehicle (the solvent for peptide) control (PBS:100 μl/injection) were injected in angulus oculi medialis vein daily, 7 times in total. The mice were sacrificed by dislocating the neck on the next day after administration was stopped, and the tumors were taken and weighed for a statistical analysis.

[1] = tested on: human lung cancer PG cells; assay: Tumor suppression in human lung cancer PG tumor-bearing nude mice model; assay type: in vivo, Balb/c nude mice; conditions: 50 μg/100 μl PBS/injection, angulus oculi medialis vein once every other day, 10 times; vs vehicle, P<0.05
Experimental: In order to confirm the biological effects of FpAT on the growth of human deriving tumors in nude mice in vivo, a tumor suppression experiment was carried out in this example using human gastric carcinoma BGC-823 cells tumor-bearing nude mice model, human lung cancer PG cells tumor-bearing nude mice model and human colon cancer HT-29 cells tumor-bearing nude mice model.
Twenty 5-week old Balb/c nude mice purchased from Animal Center Of Chinese Academy Of Medical Sciences were inoculated subcutaneously in forelimb with human gastric carcinoma BGC-823 cells (National Institute for the Control of Pharmaceutical and Biological Products) (5×10^6/100 μl/mouse), human lung cancer PG cells (National Institute for the Control of Pharmaceutical and Biological Products) (5×10^6/100 μl/mouse) or human colon cancer HT-29 cells (ATCC® Number: HTB-38™) (5×10^6/100 μl/mouse). On the next day after inoculation, each kind of inoculated cells were divided into 2 groups randomly with 5 mice per group. […] Observation was continued for another 20 days after administration was stopped, and during this period the long and short diameters of the tumors were measured with a vernier caliper once every three days, and the volumes of the tumor mass were calculated according to formula ½×long diameter×short diameter^2. […]

[2] = tested on: endothelial cells of mouse aorta; assay: Growth of primary endothelial cells from mouse aorta segments on Matrigel; assay type: cell-based, Balb/c mice; conditions: 10, 25, 100 μg/ml PBS; 48 hours, 72 hours
Experimental: The Balb/c mice were sacrificed by dislocating the neck and aorta were detached and washed off the blood cells therein with PBS. The cleaned aorta was cut into aorta segments in length of 1 mm, which were planted vertically in 24-well cell culture plate coated with Matrigel gel (BD company); and 10% FCS/RPMI1640 was added, and the plates were placed and cultured in CO2 incubator (37° C., 5% CO2). The vehicle (PBS) and FpAT (10 μg/ml PBS, 25 μg/ml PBS, 100 μg/ml PBS) were added separately, with 3 parallel wells per group, and the cultivation was performed for 48 hours, 72 hours. Then the growth of mouse aorta endothelial cell was observed under microscope.

[3] = tested on: human umbilical vein endothelial cells (HUVECs); assay: MTT proliferation of HUVECs; assay type: cell-based; conditions: 25 μg/ml PBS, MTT at 24, 48, 72, 96 hours
Experimental: In order to further investigate the effects of FpAT on the proliferation of various vascular endothelial cells, a cell proliferation suppression experiment was carried out using MTT method in this example.
Human umbilical cord samples (obtained from Beijing Obstetrics & Gynecology Hospital) was digested with 0.1% collagenase I (available from GIBCO BRL company), followed by a centrifugation (1000 rpm, 10 minutes) to collect human umbilical vein endothelial cells (HUVECs). After suspended in 20% FCS/RPMI1640, the cells were transferred into plastic bottles for culture in CO2 incubator (37° C., 5% CO2). Twelve hours later, unattached cells were discarded by changing medium, and then the remaining cells were cultured conventionally with the medium changed every 3 days. The cultured HUVECs were digested with 0.04% trypsin-EDTA, and inoculated into 96-well plate at 2×10^3 cells/well. After 24 hours of culture, the vehicle (PBS) and FpAT (25 μg/ml PBS) were added separately, with 4 parallel wells per group. […] After mixed well, OD value (measured at a wavelength of 570 nm) of each well was measured in a microplate reader, and the cell suppression rates were calculated according to the following formula: cell suppression rate=(mean OD value of blank control group-mean OD value of treated group)/mean OD value of blank control group×100%.

[4] = tested on: pig aorta endothelial cells (PAEC); assay: MTT proliferation of pig aorta endothelial cells; assay type: cell-based; conditions: similar experiment to HUVEC MTT
[5] = tested on: human umbilical vein endothelial cells (HUVECs); assay: Three-dimensional tubular structure formation of HUVECs; assay type: cell-based; conditions: 10, 25, 100 μg/ml PBS; 48, 72, 96 hours
Experimental: Human umbilical cord samples (obtained from Beijing Obstetrics & Gynecology Hospital) was digested with 0.1% collagenase I (available from GIBCO BRL company), followed by a centrifugation (1000 rpm, 10 minutes) to collect human umbilical vein endothelial cells (HUVECs). After suspended in 20% FCS/RPMI1640, the cells were transferred into plastic bottles for culture in CO2 incubator (37° C., 5% CO2). Twelve hours later, unattached cells were discarded by changing medium, and then the remaining cells were cultured conventionally with the medium changed every 3 days. The cultured HUVECs were digested with 0.04% trypsin-EDTA, and inoculated into 24-well plate at 2×10^4 cells/well; and the vehicle (PBS) and FpAT (10 μg/ml PBS, 25 μg/ml PBS, 100 μg/ml PBS) were added separately, with 3 parallel wells per group.

H2N-Asp-Ser-Gly-Glu-Gly-Asp-Phe-Leu-Ala-Glu-Gly-Gly-Gly-Val-Arg-COOH (H-DSGEGDFLAEGGGVR-OH; listed as Homo sapiens) [FpAT, fibrinopeptide A truncated, carboxyl terminal 15 amino acids of fibrinopeptide A]
growth of osteosarcoma S180 cells in vivo (tumor mass) (osteosarcoma S180 cells): could suppressed the growths | growth of human lung cancer PG cells in nude mice (tumor mass) [1]: could suppress the growths | growth of vascular endothelial cell of mouse aorta [2]: can suppress specifically the growth | proliferation, migration and ability to form tubular structure of vascular endothelial cell of mouse aorta [2]: suppress notably | suppressing rate of HUVEC proliferation [3]: 40.1% | suppression of PAEC proliferation [4]: came to a same conclusion | ability to form a three-dimensional and tubular structure of HUVECs [5]: can suppress specifically
